Assay results published in PMC13070491, “Single-nucleus transcriptomics, pharmacokinetics, and pharmacodynamics of CDK4/6 and mTOR inhibition in a Phase 0/1 trial of recurrent high-grade glioma” (Neuro-Oncology, 2025).

Test system: GB126, GB239 and GB86 patient-derived cell lines
Test: In vitro single-cell RNA sequencing, analyses across the cell lines (pseudobulk differential gene expression, GSEA, non-cycling cells)
Format: cell-based, human
Conditions: pseudobulk, ribociclib versus control (DMSO)
Method: Patient-derived glioma stem cell lines (GSCs; GB126, GB86, and GB239) were established from resected GBM tumor tissue. Cell lines were genetically profiled for mutations and copy number aberrations using the IvySeq custom gene panel. […] GB239 was derived from a tumor sample included in this Phase 0 trial (tumor sample: 100-0039). All human GSCs were cultured as described previously.[12]
Following the fifth day of drug exposure, cells were harvested, cryopreserved to be processed at a later point, or immediately processed for single-cell RNA sequencing (10x Genomics, 3’ version 3). The single-cell RNA sequencing data were then processed via cellranger count and Seurat. Briefly, cells were filtered out based on the following criteria: minimum number of genes detected >500 and <10 000 with a maximum percentage of mitochondrial genes set to 10%. Statistical assessment was made between the malignant proportions of each cell state using a 2-sided paired t-test.
Descriptive statistics of the clinical data are included in Table 1. Comparisons between groups were conducted using a 2-sided or paired 2-sided t-test, where indicated. P < .05 was considered significant. Multiple hypothesis test corrections (ie, false discovery rate correction) were applied for snRNAseq pseudobulk differential expression analysis.

## CN(C)C(=O)c1cc2cnc(Nc3ccc(N4CCNCC4)cn3)nc2n1C1CCCC1 [ribo]
Gene ABCA6
  log2FoldChange ABCA6: 1.5
Gene ABCA8
  log2FoldChange ABCA8: 1.548
Gene AC002074.1
  log2FoldChange AC002074.1: 1.866
Gene AC002383.1
  log2FoldChange AC002383.1: 1.53
Gene AC004828.1
  log2FoldChange AC004828.1: 1.459
Gene AC005538.3
  log2FoldChange AC005538.3: 2.148
Gene AC007317.2
  log2FoldChange AC007317.2: 2.061
Gene AC009313.1
  log2FoldChange AC009313.1: 1.78
Gene AC009975.2
  log2FoldChange AC009975.2: 1.436
Gene AC010230.1
  log2FoldChange AC010230.1: 1.7556
Gene AC010551.3
  log2FoldChange AC010551.3: 1.556
Gene AC012038.2
  log2FoldChange AC012038.2: 2.048
Gene AC012405.1
  log2FoldChange AC012405.1: 1.439
Gene AC012533.1
  log2FoldChange: -1.092
Gene AC012625.1
  log2FoldChange AC012625.1: 1.675
Gene AC013480.1
  log2FoldChange AC013480.1: 1.662
Gene AC020892.1
  log2FoldChange AC020892.1: 1.613
Gene AC023644.1
  log2FoldChange AC023644.1: 1.813
Gene AC024884.2
  log2FoldChange: -1.745
Gene AC025263.1
  log2FoldChange AC025263.1: 1.435
Gene AC026333.4
  log2FoldChange: -1.805
Gene AC026888.1
  log2FoldChange AC026888.1: 1.994
Gene AC027117.1
  log2FoldChange AC027117.1: 1.702
Gene AC055874.1
  log2FoldChange AC055874.1: 1.6992
Gene AC073611.1
  log2FoldChange AC073611.1: 1.444
Gene AC079117.1
  log2FoldChange AC079117.1: 1.6417
Gene AC090403.1
  log2FoldChange AC090403.1: 1.628
Gene AC091953.1
  log2FoldChange AC091953.1: 1.742
Gene AC092604.1
  log2FoldChange AC092604.1: 1.65
Gene AC092617.1
  log2FoldChange AC092617.1: 2.048
Gene AC092691.3
  log2FoldChange AC092691.3: 1.975
Gene AC096576.2
  log2FoldChange AC096576.2: 1.586
Gene AC096576.3
  log2FoldChange AC096576.3: 1.66
Gene AC097375.4
  log2FoldChange AC097375.4: 1.562
Gene AC099850.3
  log2FoldChange: -1.64
Gene AC100835.2
  log2FoldChange AC100835.2: 1.894
Gene AC104078.2
  log2FoldChange AC104078.2: 1.507
Gene AC104574.1
  log2FoldChange AC104574.1: 1.483
Gene AC106874.1
  log2FoldChange AC106874.1: 1.556
Gene AC109129.1
  log2FoldChange AC109129.1: 1.6709
Gene AC110296.1
  log2FoldChange AC110296.1: 1.762
Gene AC114546.2
  log2FoldChange AC114546.2: 1.559
Gene AC114964.2
  log2FoldChange AC114964.2: 1.675
Gene AC116914.1
  log2FoldChange: -1.614
Gene AC121154.1
  log2FoldChange AC121154.1: 1.879
Gene AC132153.1
  log2FoldChange AC132153.1: 1.518
Gene AC133530.1
  log2FoldChange AC133530.1: 1.513
Gene AC137579.1
  log2FoldChange AC137579.1: 1.549
Gene AC138819.1
  log2FoldChange: -1.883
Gene ACSM5
  log2FoldChange ACSM5: 2.672
Gene ACYP1
  log2FoldChange: -1.092
Gene ADAMTS4
  log2FoldChange ADAMTS4: 1.636
Gene ADCY5
  log2FoldChange ADCY5: 1.503
Gene ADGRA1-AS1
  log2FoldChange ADGRA1-AS1: 1.641
Gene ADH1A
  log2FoldChange ADH1A: 1.456
Gene AL022324.3
  log2FoldChange AL022324.3: 1.692
Gene AL031658.2
  log2FoldChange: -1.667
Gene AL132633.1
  log2FoldChange AL132633.1: 1.623
Gene AL132655.3
  log2FoldChange: -1.059
Gene AL135934.1
  log2FoldChange AL135934.1: 1.5674
Gene AL138789.1
  log2FoldChange: -1.6906
Gene AL158058.1
  log2FoldChange AL158058.1: 2.1266
Gene AL162385.1
  log2FoldChange AL162385.1: 2.332
Gene AL354813.1
  log2FoldChange AL354813.1: 1.4344
Gene AL355916.2
  log2FoldChange AL355916.2: 1.536
Gene AL356094.2
  log2FoldChange: -1.675
Gene AL358394.1
  log2FoldChange AL358394.1: 2.818
Gene AL390839.2
  log2FoldChange: -1.735
Gene AL391730.2
  log2FoldChange AL391730.2: 1.804
Gene AL445423.1
  log2FoldChange AL445423.1: 1.473
Gene AL591686.1
  log2FoldChange AL591686.1: 1.912
Gene AL645608.7
  log2FoldChange: -1.064
Gene ANP32E
  log2FoldChange: -1.059
Gene AP000569.1
  log2FoldChange AP000569.1: 1.498
Gene AP000857.2
  log2FoldChange AP000857.2: 1.634
Gene AP001825.1
  log2FoldChange AP001825.1: 1.5203
Gene AP002370.2
  log2FoldChange AP002370.2: 1.537
Gene AP002761.2
  log2FoldChange AP002761.2: 1.672
Gene ARHGAP11A
  log2FoldChange: -1.6744
Gene ARHGAP26-IT1
  log2FoldChange ARHGAP26-IT1: 2.344
Gene ARNTL2
  log2FoldChange: -1.092
Gene ASB9
  log2FoldChange ASB9: 1.438
Gene BAIAP3
  log2FoldChange BAIAP3: 1.561
Gene BBOX1
  log2FoldChange BBOX1: 1.457
Gene BRIP1
  log2FoldChange: -1.784
Gene BST2
  log2FoldChange BST2: 1.645
Gene BUB1
  log2FoldChange: -1.8
Gene C1QTNF2
  log2FoldChange: -1.812
Gene C1orf147
  log2FoldChange C1orf147: 1.503
Gene C16orf89
  log2FoldChange C16orf89: 1.4386
Gene C20orf78
  log2FoldChange C20orf78: 1.576
Gene C21orf58
  log2FoldChange: -1.614
Gene CALB2
  log2FoldChange CALB2: 2.123
Gene CAMK2N2
  log2FoldChange: -1.147
Gene CCDC74A
  log2FoldChange: -1.6
Gene CCDC74B
  log2FoldChange: -1.688
Gene CCNE2
  log2FoldChange: -1.873
Gene CCNF
  log2FoldChange: -1.863
Gene CDCA4
  log2FoldChange: -1.7252
Gene CDKN3
  log2FoldChange: -1.855
Gene CHAF1B
  log2FoldChange: -1.654
Gene CHGA
  log2FoldChange CHGA: 1.609
Gene CHI3L1
  log2FoldChange CHI3L1: 1.918
Gene CHL1-AS1
  log2FoldChange CHL1-AS1: 1.667
Gene CHST4
  log2FoldChange CHST4: 1.465
Gene CLEC1A
  log2FoldChange CLEC1A: 1.693
Gene CRHR1
  log2FoldChange: -1.091
Gene CYP4Z1
  log2FoldChange CYP4Z1: 1.554
